Experimental findings from patent US20240238232A1, “COMPOSITIONS AND METHODS FOR THE REDUCTION OR TREATMENT OF INSULIN RESISTANCE AND METABOLIC CONDITIONS” (AXCELLA HEALTH INC., priority 2018, published 2024) are described below.

The subject of assay [1] is α-smooth muscle actin (αSMA), activated hepatic stellate cells. Description: α-smooth muscle actin staining of liver sections (activated hepatic stellate cells) in STAM mice, Example 2. It is filed as in vivo, mouse. Conditions: A-1 1500 mg/kg twice daily, OCA 30 mg/kg once daily. On the procedure: (§1) Amino Acid Composition A-1 and Obeticholic acid (6α-ethyl-chenodeoxycholic acid; “OCA”) were tested for their ability to treat NASH in the STAM™ model (Stelic Institute & Co., Tokyo, Japan; Saito K. et al., 2015 Sci Rep 5:12466). Two additional groups of normal C57BL/6 mice fed standard chow and vehicle treated STAM™ mice were included as controls. All animals receiving treatment or vehicle were treated starting at 6 weeks until 9 weeks of age. Compounds were administered via oral gavage, with a dose volume of 10 ml/kg. Amino Acid Composition A-1 was administered twice daily at a dose of 1500 mg/kg, and OCA was administered once daily at a dose of 30 mg/kg.
(§2) Amino Acid Composition A-1, OCA and Vehicle (described below) were administered by oral route in a volume of 10 mL/kg. Amino Acid Composition A-1 was solubilized in deionized water to 150 mg/ml (10 X). OCA (Advanced ChemBlocks Inc.) was resuspended in 0.5% methycellulose in water to 3 mg/ml (10 X). Amino Acid Composition A-1 was administered at a dose of 1500 mg/kg twice daily (9 am and 7 pm). OCA was administered at a dose of 30 mg/kg once daily (9 am).
Liver sections of all mice were stained for the marker α-smooth muscle actin (αSMA) to identify activated hepatic stellate cells. Images were quantified using the percent of positively stained area was used as a measure of stellate cell activation. […]

In the next assay the test system is STAM™ model (NASH). Description: NAFLD activity score (HE staining, Kleiner criteria) in STAM mice, Example 2. It is filed as in vivo, mouse. Further details: key to NAFLD Activity Score (NAS), mean / NAFLD Activity Score: raw data: NAS = steatosis (0-3) + inflammation (0-2) + ballooning (0-2); key to NAFLD Activity: Steatosis Score, mean / NAFLD Activity: Steatosis Score: raw data: steatosis grade 0-3 (Kleiner criteria). To be noted: A-1 1500 mg/kg twice daily, OCA 30 mg/kg once daily. On the procedure:
as §1
STAM™ is a model for non-alcoholic steatohepatitis (NASH) and hepatocellular carcinoma (HCC), developed by SMC Laboratories, Inc. and created by the combination of chemical and dietary interventions using C57BL/6 mice (Saito K. et al., 2015 Sci Rep 5:12466). Mice are treated with a low dose of streptozotocin at birth and fed a high fat diet starting at 4 weeks. Evidence of fatty liver is present by 5 weeks, followed by NASH by 7 weeks and fibrosis by 9 weeks.
NASH was induced in 53 male mice by a single subcutaneous injection of 200 μg streptozotocin (STZ, Sigma-Aldrich, USA) solution 2 days after birth and feeding with high fat diet (HFD, 57 kcal % fat, Cat #HFD32, CLEA Japan, Japan) after 4 weeks of age.
as §2
Liver samples from mice in Group 2 (Vehicle), 3 (Amino Acid Composition A-1) and 4 (OCA) were used for the following assays. For HE staining, sections were cut from paraffin blocks of liver tissue prefixed in Bouin's solution and stained with Lillie-Mayer's Hematoxylin (Muto Pure Chemicals Co., Ltd., Japan) and eosin solution (Wako Pure Chemical Industries). NAFLD Activity score (NAS) was calculated according to the criteria of Kleiner (Kleiner D. E. et al., Hepatology, 2005; 41:1313).
The non-alcoholic fatty liver disease (NAFLD) activity score was assessed via histological analysis and grading of H&E stained liver sections from each animal. This score is the sum of three individual scores that grade the degree of steatosis (0-3), inflammation (0-2), and hepatocyte ballooning (0-2). All tissues were graded using the scoring criteria of Kleiner et al. (Kleiner et al. Hepatology. 2005; 41(6): 1313-21). Data are mean±standard deviation (stdev). […] Both Amino Acid Composition A-1 and OCA were statistically different from vehicle for NAFLD Activity Score when compared using Dunnett's multiple comparisons test (Amino Acid Composition A-1 p=0.0001, OCA p=0.0001).

Setting [2] is: STAM mice, oral, 6 to 9 weeks of age.

Molecules are shown by their SMILES. Where “and” joins values, the source holds several entries; their conditions need not be identical. Identical values can stand only once.

With `CC[C@H]1[C@@H](O)[C@@H]2[C@H](CC[C@]3(C)[C@@H]([C@H](C)CCC(=O)O)CC[C@@H]23)[C@@]2(C)CC[C@@H](O)C[C@@H]12` [OCA, 6α-ethyl-chenodeoxycholic acid], in assay [1] (setting [2]), the “Activated hepatic stellate cells (mean positively stained area, α-smooth muscle actin)” value was 1.562+/−0.31% and 1.562%. Besides, the “Activated hepatic stellate cells (positively stained area, α-smooth muscle actin): raw data” value in assay [1] (individual STAM mice) was 1.51% and 1.49% (2×) and 1.17% and 1.13% and 2.03% and 1.87% and 1.97% and 1.46%. In addition, in the assay with STAM™ model (NASH) (setting [2]), the “NAFLD Activity Score (NAS), mean” value was 2.9+/−0.74 and 2.9; the “NAFLD Activity: Ballooning Score, mean” value was 0.3+−0.48 and 0.3; the “NAFLD Activity: Inflammation Score, mean” value is 1.8; the “NAFLD Activity: Steatosis Score, mean” value came out at 0.8. In addition, in the assay with STAM™ model (NASH) (individual STAM mice), the “NAFLD Activity Score: raw data” value was 2 (3×) and 4 (2×) and 3 (5×); the “NAFLD Activity: Ballooning Score: raw data” value is 0 (7×) and 1 (3×); the “NAFLD Activity: Inflammation Score: raw data” value was 1 (4×) and 2 (4×) and 3 (2×); the “NAFLD Activity: Steatosis Score: raw data” value is 1 (8×) and 0 (2×).
